Source: US5652363A, “Pyrido-1,4-oxazinylalkyl-benzamide derivatives” (C.D. Searle & Co., priority 1996, dated 1997)
pIC50: −log10 of the molar value.

What follows are compounds tested against T1, PAF receptor (Homo sapiens, UniProt P25105) (assay: Human Platelet Receptor Binding Assay ([3H]PAF binding to human platelet membrane preparation)). Conditions: inhibition of specific binding of 0.75 nM [3H]PAF to human platelet membranes, 30 minutes at 24° C.; read-out: PAF Inhibitor Activity Human Platelet Receptor Assay.
T1 construct: tissue Lifesource, Inc. (Glenview, Ill.); host or cells: human platelets (membrane preparation)
Method: Human Platelet Receptor Binding Assay
Compounds of the invention were evaluated for their ability to inhibit specific binding of [^3 H]PAF to human platelet membrane preparation. Human packed platelets were obtained from Lifesource, Inc. (Glenview, Ill.) and washed 3 times with 10 mM Trizma pH 7.0, 2 mM EDTA (dipotassium salt), 150 mM KCl and then once with 10 mM Trizma 7.4, 20 mM CaCl2. The platelets were broken by freezing in a dry ice-ethanol bath, followed by thawing in 24° C. water baths. The preparation was centrifuged (40,000×g, 20 minutes, 4° C.) and the pellet suspended in 10 mM Trizma 7.4, 20 mM CaCl2, 5 mg/ml human albumin. Protein concentration in the platelet membrane preparation was determined by the Lowry method [O. H. Lowry et al., J. Biol. Chem., 193, 265-275 (1951)]. Aliquots of the membrane preparation were stored at -70° C. Each preparation was characterized for PAF receptor number and dissociation constant (Kd). In binding assays 5 μl of test compound, solubilized in DMSO, was added to polypropylene tubes along with 0.75 nM [^3 H]PAF and 200 mcl [0.075 nM] of membranes and 95 μl 10 mM Trizma 7.4, 20 mM CaCl2, 5 mg/ml human albumin-Tubes were incubated for 30 minutes at 24° C. The incubation was terminated by adding 4 ml of ice-cold 10 mM Trizma pH 7.4, 20 mM CaCl2 and 20 mg/ml BSA prior to vacuum filtration using Whatman GF/C filters. Filters were prepared and counted in a scintillation counter. All DPM values (disintergrations per minute) were corrected for background and isotope decay. Triplicate determinations for single doses were averaged. The amount of non-specific binding was subtracted from all dose averages, giving an amount of specific binding in all cases. The IC50 values for the compounds of the invention were determined by the Allfit program using percent displacement data. (Allfit is a `basic` computer program for simultaneous curve fitting of a family of signoidal dose-response curves using the four parameter logistic equation.) Results are shown in Table I. In Table 1 "c-pent" means cyclopentyl; "c-hex" means cyclohexyl; "i-Pr" means isopropyl; "Me" means methyl; and "OMe" means methoxy.

T1 sequence (P25105 whole entry): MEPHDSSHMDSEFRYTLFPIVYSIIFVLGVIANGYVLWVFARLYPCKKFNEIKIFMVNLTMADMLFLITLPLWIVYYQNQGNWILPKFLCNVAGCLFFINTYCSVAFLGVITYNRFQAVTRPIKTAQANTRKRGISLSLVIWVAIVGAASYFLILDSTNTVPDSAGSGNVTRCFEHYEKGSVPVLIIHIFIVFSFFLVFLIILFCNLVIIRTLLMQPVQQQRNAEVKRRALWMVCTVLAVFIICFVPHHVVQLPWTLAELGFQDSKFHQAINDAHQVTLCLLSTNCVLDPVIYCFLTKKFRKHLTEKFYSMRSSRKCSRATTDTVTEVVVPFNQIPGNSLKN

Structure (SMILES)	pIC50
COc1cc(CN2CCOc3cnccc32)ccc1C(=O)N(C1CCCC1)[C@@H]1C[C@H](C)C[C@H](C)C1 [Example 9]	6.79
Cc1cc(C(=O)N(C2CCCCC2)C2CCCC2)ccc1CN1CCOc2cnccc21 [Example 10, N-cyclohexyl-N-cyclopentyl-4-[(2,3-dihydro-1H-pyrido[3,4-b][1,4]oxazin-1-yl)methyl]-3-methyl-benzamide]	6.66
CC(C)N(C(=O)c1ccc(CN2CCOc3cnccc32)c(Br)c1)C1CCCCC1 [Example 11, 3-bromo-N-cyclohexyl-4-[(2,3-dihydro-1H-pyrido[3,4-b]-[1,4]oxazin-1-yl)methyl]-N-(1-methylethyl)benzamide]	8.70
COc1cc(C(=O)N(C(C)C)C2CCCCC2)ccc1CN1C(=O)COc2ncccc21 [Example 17, N-cyclohexyl-4-[{2,3-dihydro-2-oxo-1H-pyrido(2,3-b)(1,4)oxazin-1-yl}methyl]-3-methoxy-N-(1-methylethyl)benzamide]	6.30
